Where only a bound is given, the exact number is not on record here.

As a reminder, the IC50 is the point on the concentration scale where inhibition reaches its midpoint.

One experiment has as its system β-catenin/Tcf-4. Nature of the experiment: cells. The class given is cell-based. The following applies: 24 hours of incubation with compound, ratio Firefly/Renilla luciferase. In a few lines:
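SW480-derived lines with integrated reporters (Tcf-4-driven firefly luciferase; SV40 firefly as specificity control; SV40 Renilla for cell number/toxicity), treated 24 hours with titrated compounds, final 0.316% DMSO. Dual-luciferase read-out; firefly/Renilla ratio as % of control, duplicate plates, IC50 (nM) from curve fit.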

For the next experiment, the system named is SV40-Luc. Kind of experiment: SV40-Luc control luciferase reporter assay, SV 5A8 cell line (SV40-Luc and SV40-R-Luc), control for non-specific inhibitors. The class given is cell-based, human. The following applies: SV 5A8 cells derived from SW480, 24 hours of incubation with compound, ratio Firefly/Renilla luciferase. In a few lines:
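SW480 cells, stably integrated reporters; SV 5A8 = SV40-firefly + SV40-Renilla control line, Tcf 33.13/Tcf 22C11 = Tcf-4-firefly + SV40-Renilla. Cpd titration, 24 h, 0.316% DMSO final. Dual-Luc/Dual-Glo read; F/R ratio (% ctrl, duplicate plates) → IC50.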

The mark [1] stands for this setting: Homo sapiens, SW480, 24 h, Tcf 33.13 cells derived from SW480.
Setting [2] is: Homo sapiens, Tcf22C11, 24 h, Tcf 22C11 cells derived from SW480.

`Cc1ccc2nc(N3CCN(c4ncccn4)CC3)nc(NCc3ccc(NC(=O)C4CCN(Cc5ccccc5)CC4)cc3)c2c1` [Example 82, 1-benzyl-N-[4-({[6-methyl-2-(4-pyrimidin-2-ylpiperazin-1-yl)quinazolin-4-yl]amino}methyl)phenyl]piperidine-4-carboxamide]: the IC50 was 891 nM in the experiment with β-catenin/Tcf-4 (setting [1]); 872 nM with β-catenin/Tcf-4 (setting [2]); greater than 7960 nM in the experiment on SV40-Luc (Homo sapiens, SV5A8, 24 h).

Consider `O=C(Nc1ccc(CNc2nc(NC3CCCCC3)nc3ccccc23)cc1)c1ccc(F)cc1` [Example 125, N-[4-({[2-(cyclohexylamino)quinazolin-4-yl]amino}methyl)phenyl]-4-fluorobenzamide], for which the concentration for half-maximal inhibition (IC50) was 364 nM in the experiment on β-catenin/Tcf-4 (setting [1]); 1580 nM in the experiment on β-catenin/Tcf-4 (setting [2]); greater than 1330 nM with SV40-Luc (Homo sapiens, SV5A8, 24 h).

On to `CN(C)c1nc(NCc2ccc(NC(=O)c3ccc(F)cc3)cc2)c2ccc(/C=C/C(C)(C)C)cc2n1` [Example 102, N-{4-[({2-(dimethylamino)-7-[(1E)-3,3-dimethylbut-1-en-1-yl]quinazolin-4-yl}amino)methyl]phenyl}-4-fluorobenzamide], for which the IC50 in the experiment with β-catenin/Tcf-4 (setting [1]) is 825 nM; in the experiment with β-catenin/Tcf-4 (setting [2]) it was 1340 nM; in the experiment with SV40-Luc (Homo sapiens, SV5A8, 24 h) it was greater than 9360 nM.

`CNc1nc(NCc2ccc(NC(=O)c3ccc(Cl)cc3)cc2)c2cc(C)cc(C)c2n1` [Example 29, 4-chloro-N-[4-({[6,8-dimethyl-2-(methylamino)quinazolin-4-yl]amino}methyl)phenyl]benzamide]: the IC50 with β-catenin/Tcf-4 (setting [1]) was 756 nM; in the experiment with β-catenin/Tcf-4 (setting [2]), 988 nM; in the experiment with SV40-Luc (Homo sapiens, SV5A8, 24 h), greater than 2800 nM.

As for `Cc1ccc2nc(N3CCN(C)CC3)nc(NCc3ccc(NC(=O)c4ccc(F)cc4)cc3)c2c1` [Example 48, 4-fluoro-N-[4-({[6-methyl-2-(4-methylpiperazin-1-yl)quinazolin-4-yl]amino}methyl)phenyl]benzamide], the IC50 in the experiment with β-catenin/Tcf-4 (setting [1]) is greater than 20600 nM; in the experiment with β-catenin/Tcf-4 (setting [2]) it was greater than 20600 nM; in the experiment on SV40-Luc (Homo sapiens, SV5A8, 24 h), greater than 20600 nM.

With “N-{4-[({6,8-dimethyl-2-[(3S)-3-methylpiperazin-1-yl]quinazolin-4-yl}amino)methyl]phenyl}-4-fluorobenzamide [Example 50]”, the IC50 in the experiment with β-catenin/Tcf-4 (Tcf 22C11 cells derived from SW480) is greater than 1250 nM; in the experiment on β-catenin/Tcf-4 (Tcf 33.13 cells derived from SW480) it was 1490 nM; in the experiment with SV40-Luc, greater than 5010 nM.

Turning to `Cc1ccc2c(NCc3ccc(NC(=O)C4CCN(Cc5ccccc5)CC4)cc3)nc(N(C)C)nc2c1` [Example 129, 1-benzyl-N-[4-({[2-(dimethylamino)-7-methylquinazolin-4-yl]amino}methyl)phenyl]piperidine-4-carboxamide], the IC50 with β-catenin/Tcf-4 (setting [1]) was 754 nM; in the experiment on β-catenin/Tcf-4 (setting [2]), 738 nM; with SV40-Luc (Homo sapiens, SV5A8, 24 h), greater than 9170 nM.

Consider `CN(C)c1ccc(-c2ccc3nc(N(C)C)nc(NCc4ccc(NC(=O)c5ccc(F)cc5)cc4)c3c2)cn1` [Example 59, N-{4-[({2-(dimethylamino)-6-[6-(dimethylamino)pyridin-3-yl]quinazolin-4-yl}amino)methyl]phenyl}-4-fluorobenzamide], for which the IC50 with β-catenin/Tcf-4 (setting [1]) was 453 nM; with β-catenin/Tcf-4 (setting [2]), 229 nM; in the experiment on SV40-Luc (Homo sapiens, SV5A8, 24 h) it was greater than 2330 nM.

`Cc1ccc2c(NCc3ccc(NC(=O)c4ccc(F)cc4)cc3)nc(N3CCN(CC(=O)N4CCCC4)CC3)nc2c1` [Example 213, 4-fluoro-N-{4-[({7-methyl-2-[4-(2-oxo-2-pyrrolidin-1-ylethyl)piperazin-1-yl]quinazolin-4-yl}amino)methyl]phenyl}benzamide]: the IC50 in the experiment with β-catenin/Tcf-4 (setting [1]) was 1390 nM; in the experiment with β-catenin/Tcf-4 (setting [2]), 1710 nM; in the experiment with SV40-Luc (Homo sapiens, SV5A8, 24 h) it was greater than 12400 nM.

Regarding `CN(C)c1nc(NCc2ccc(NC(=O)c3ccc(F)cc3)cc2)c2cc(I)ccc2n1` [Example 68, N-[4-({[2-(dimethylamino)-6-iodoquinazolin-4-yl]amino}methyl)phenyl]-4-fluorobenzamide], the concentration for half-maximal inhibition (IC50) in the experiment on β-catenin/Tcf-4 (setting [1]) is 400 nM; in the experiment with β-catenin/Tcf-4 (setting [2]), 530 nM; with SV40-Luc (Homo sapiens, SV5A8, 24 h), greater than 4620 nM.

Take `CNc1nc(NCc2ccc(NC(=O)c3ccc(Cl)cc3)cc2)c2cc(OC)ccc2n1` [Example 33, 4-chloro-N-[4-({[6-methoxy-2-(methylamino)quinazolin-4-yl]amino}methyl)phenyl]benzamide]: the IC50 in the experiment with β-catenin/Tcf-4 (setting [1]) is 1720 nM; in the experiment with β-catenin/Tcf-4 (setting [2]), 1280 nM; in the experiment on SV40-Luc (Homo sapiens, SV5A8, 24 h) it was greater than 2790 nM.

`O=C(Nc1ccc(CNc2nc(NC3CCC3)nc3ccc(C(F)(F)F)cc23)cc1)c1ccc(Cl)cc1` [Example 166, 4-chloro-N-[4-({[2-(cyclobutylamino)-6-(trifluoromethyl)quinazolin-4-yl]amino}methyl)phenyl]benzamide]: the IC50 in the experiment on β-catenin/Tcf-4 (setting [1]) was greater than 9510 nM; in the experiment on β-catenin/Tcf-4 (setting [2]) it was greater than 9510 nM; in the experiment on SV40-Luc (Homo sapiens, SV5A8, 24 h) it was greater than 9510 nM.

On to `CNc1nc(NCc2ccc(NC(=O)c3ccc(Br)cc3)cc2)c2cccc(C)c2n1` [Example 265, 4-bromo-N-[4-({[8-methyl-2-(methylamino)quinazolin-4-yl]amino}methyl)phenyl]benzamide], for which the IC50 with β-catenin/Tcf-4 (setting [1]) is 933 nM; in the experiment with β-catenin/Tcf-4 (setting [2]) it was 1140 nM; in the experiment on SV40-Luc (Homo sapiens, SV5A8, 24 h), greater than 4230 nM.

For the molecule `CCN(CC)c1nc(NCc2ccc(NC(=O)c3ccc(Cl)cc3)cc2)c2cc(C(F)(F)F)ccc2n1` [Example 165, 4-chloro-N-[4-({[2-(diethylamino)-6-(trifluoromethyl)quinazolin-4-yl]amino}methyl)phenyl]benzamide], the IC50 was 5430 nM in the experiment on β-catenin/Tcf-4 (setting [1]); 9640 nM in the experiment with β-catenin/Tcf-4 (setting [2]); greater than 9470 nM in the experiment on SV40-Luc (Homo sapiens, SV5A8, 24 h).

`CC(C)c1ccc2c(NCc3ccc(NC(=O)c4ccc(F)cc4)cc3)nc(N(C)C)nc2c1` [Example 61, N-[4-({[2-(dimethylamino)-7-isopropylquinazolin-4-yl]amino}methyl)phenyl]-4-fluorobenzamide]: the IC50 is 327 nM in the experiment with β-catenin/Tcf-4 (setting [1]); 532 nM in the experiment on β-catenin/Tcf-4 (setting [2]); greater than 5060 nM with SV40-Luc (Homo sapiens, SV5A8, 24 h).

With `CCNc1nc(NCc2ccc(NC(=O)c3ccc(F)cc3)cc2)c2ccccc2n1` [Example 118, N-[4-({[2-(ethylamino)quinazolin-4-yl]amino}methyl)phenyl]-4-fluorobenzamide], the IC50 is 588 nM with β-catenin/Tcf-4 (setting [1]); 942 nM in the experiment on β-catenin/Tcf-4 (setting [2]); greater than 3010 nM in the experiment on SV40-Luc (Homo sapiens, SV5A8, 24 h).

As for `CNc1nc(NCc2ccc(NC(=O)c3ccc(Cl)cc3Cl)cc2)c2ccccc2n1` [Example 16, 2,4-dichloro-N-[4-({[2-(methylamino)quinazolin-4-yl]amino}methyl)phenyl]benzamide], the concentration for half-maximal inhibition (IC50) was 1820 nM in the experiment with β-catenin/Tcf-4 (setting [1]); greater than 2760 nM in the experiment on β-catenin/Tcf-4 (setting [2]); greater than 2760 nM in the experiment on SV40-Luc (Homo sapiens, SV5A8, 24 h).

For the molecule `CNc1nc(NCc2ccc(NC(=O)c3ccccc3F)cc2)c2cc(C)ccc2n1` [Example 47, 2-fluoro-N-[4-({[6-methyl-2-(methylamino)quinazolin-4-yl]amino}methyl)phenyl]benzamide], the IC50 in the experiment on β-catenin/Tcf-4 (setting [1]) is 12800 nM; with β-catenin/Tcf-4 (setting [2]), 12000 nM; in the experiment on SV40-Luc (Homo sapiens, SV5A8, 24 h) it was greater than 24100 nM.

On to `Cc1ccc2c(N[C@H](C)c3ccc(NC(=O)c4ccc(Cl)nc4)cc3)nc(N(C)C)nc2c1` [Example 270, (R)-6-chloro-N-(4-(1-(2-(dimethylamino)-7-methylquinazolin-4-ylamino)ethyl)phenyl)nicotinamide], for which the IC50 in the experiment with β-catenin/Tcf-4 (setting [1]) was 372 nM; in the experiment with β-catenin/Tcf-4 (setting [2]), 429 nM; with SV40-Luc (Homo sapiens, SV5A8, 24 h), greater than 10100 nM.

For `Cc1ccc2c(NCc3ccc(NC(=O)c4ccc(Br)cc4)cc3)nc(N(C)C)nc2c1` [Example 239, 4-bromo-N-[4-({[2-(dimethylamino)-7-methylquinazolin-4-yl]amino}methyl)phenyl]benzamide], the IC50 with β-catenin/Tcf-4 (setting [1]) is 193 nM; with β-catenin/Tcf-4 (setting [2]) it was 204 nM; with SV40-Luc (Homo sapiens, SV5A8, 24 h), greater than 1270 nM.

On to `C/C=C/c1ccc2c(N[C@@H](C)c3ccc(NC(=O)c4ccc(Cl)nc4)cc3)nc(N(C)C)nc2c1` [Example 107, 6-chloro-N-{4-[(1S)-1-({2-(dimethylamino)-7-[(1E)-prop-1-en-1-yl]quinazolin-4-yl}amino)ethyl]phenyl}nicotinamide], for which the IC50 in the experiment with β-catenin/Tcf-4 (setting [1]) was 336 nM; with β-catenin/Tcf-4 (setting [2]), 414 nM; in the experiment on SV40-Luc (Homo sapiens, SV5A8, 24 h), greater than 4780 nM.

Take `Cc1ccc2c(NCc3ccc(NC(=O)C4CCN(Cc5ccccc5)CC4)cc3)nc(N(C)CCCN(C)C)nc2c1` [Example 140, 1-benzyl-N-{4-[({2-[[3-(dimethylamino)propyl](methyl)amino]-7-methylquinazolin-4-yl}amino)methyl]phenyl}-piperidine-4-carboxamide]: the IC50 in the experiment with β-catenin/Tcf-4 (setting [1]) was 1320 nM; in the experiment on β-catenin/Tcf-4 (setting [2]), 1420 nM; in the experiment with SV40-Luc (Homo sapiens, SV5A8, 24 h), greater than 8620 nM.

For the molecule `Cc1ccc2c(NCc3ccc(NC(=O)c4ccc(F)cc4)cc3)nc(N(C)Cc3ccco3)nc2c1` [Example 221, 4-fluoro-N-{4-[({2-[(2-furylmethyl)(methyl)amino]-7-methylquinazolin-4-yl}amino)methyl]phenyl}benzamide], the IC50 in the experiment on β-catenin/Tcf-4 (setting [1]) was 1060 nM; with β-catenin/Tcf-4 (setting [2]), 1240 nM; with SV40-Luc (Homo sapiens, SV5A8, 24 h), greater than 8200 nM.

Regarding `CN(C)c1nc(NCc2ccc(NC(=O)c3ccc(F)cc3)cc2)c2ccc(-c3ccccc3C=O)cc2n1` [Example 98, N-[4-({[2-(dimethylamino)-7-(2-formylphenyl)quinazolin-4-yl]amino}methyl)phenyl]-4-fluorobenzamide], the IC50 in the experiment on β-catenin/Tcf-4 (setting [1]) was 2960 nM; in the experiment on β-catenin/Tcf-4 (setting [2]), greater than 2410 nM; in the experiment with SV40-Luc (Homo sapiens, SV5A8, 24 h), greater than 19200 nM.

Regarding `CN(C)c1nc(NCc2ccc(NC(=O)Nc3ccc(F)cc3)cc2)c2ccccc2n1` [Example 182, N-[4-({[2-(dimethylamino)quinazolin-4-yl]amino}methyl)phenyl]-N′-(4-fluorophenyl)urea], the concentration for half-maximal inhibition (IC50) with β-catenin/Tcf-4 (setting [1]) was 4320 nM; in the experiment on β-catenin/Tcf-4 (setting [2]), 4280 nM; with SV40-Luc (Homo sapiens, SV5A8, 24 h) it was greater than 11600 nM.
